Results reported in US9611262B2, “Substituted 2-azabicycles and their use as orexin receptor modulators” (JANSSEN PHARMACEUTICA NV, priority 2014, dated 2017).

Legend:
[1] = biological target: human orexin 2 receptor (Homo sapiens (Human), UniProt O43614); test: Human orexin 2 receptor radioligand binding ([3H]-EMPA competition); conditions: HEK293 stably expressing human orexin 2 receptor; 2 nM [3H]-EMPA; averages of 2-20 runs; read-out: hOX2 Ki
In short: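 Membranes-free whole HEK293 cells stably expressing human OX2 receptor incubated with [3H]-EMPA and compound (7 concentrations, 0.1 nM–10 μM, ≤0.1% DMSO) for 60 min at room temperature; nonspecific binding with 10 μM almorexant. Filtration and scintillation counting; one-site IC50 converted to Ki using predetermined Kd, triplicates averaged over 2-20 runs.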

[2] = biological target: rat orexin 1 receptor (Rattus norvegicus, UniProt P56718); test: Rat orexin 1 receptor radioligand binding (competitive); conditions: HEK293 cells stably expressing rat orexin 1 receptor; 4 nM radioligand; averages of 2-20 runs; read-out: rOX1 Ki
In short: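 Competition binding used HEK293 cells expressing rat OX1 or CHO cells expressing human OX1, with 4 nM final [3H]-labelled thiazolyl-oxadiazolyl-pyrrolidinyl methanone radioligand in PBS. Compounds were tested at 7 concentrations (0.1 nM–10 μM) for 60 min at room temperature, then filtered; 10 μM almorexant defined nonspecific binding. Ki was derived from the one-site IC50 and the radioligand Kd.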

[3] = biological target: human orexin 1 receptor (Homo sapiens (Human), UniProt O43613); test: Human orexin 1 receptor radioligand binding (competitive); conditions: CHO cells stably expressing human orexin 1 receptor; 4 nM radioligand; averages of 2-20 runs; read-out: hOX1 Ki
Experimental: The in vitro affinity of the compounds of the invention for the rat/human orexin 1 and human orexin 2 receptors was determined by competitive radioligand binding using [^3H](1-(5-(2-fluoro-phenyl)-2-methyl-thiazol-4-yl)-1-((S)-2-(5-phenyl-(1,3,4)oxadiazol-2-ylmethyl)-pyrrolidin-1-yl)-methanone) (Langmead et al., 2004) and [^3H]EMPA (n-ethyl-2[96-methoxy-pyridin-3-yl)-(toluene-2-sulfonyl)-amino]-N-pyridin-3-ylmethyl acetamide), respectively (Langmead et al., 2004, British Journal of Pharmacology 141:340-346; Malherbe et al., 2004, British Journal of Pharmacology 156:1326-41).
Data are analyzed using pc-Sandy macro and graphed on Graphpad Prism 5. For analysis, each concentration point is averaged from triplicate values and the averaged values are plotted on Graphpad Prism. The IC50 was determined by applying the following equation (GraphPad Prism 5.0, San Diego) for one site competition where X=log (concentration) and Y=specific binding. Top denotes the total [^3H]— (1-(5-(2-fluoro-phenyl)-2-methyl-thiazol-4-yl)-1-((S)-2-(5-phenyl-(1,3,4)oxadiazol-2-ylmethyl)-pyrrolidin-1-yl)-methanone) binding, bottom denotes the nonspecific [^3H]— (1-(5-(2-fluoro-phenyl)-2-methyl-thiazol-4-yl)-1-((S)-2-(5-phenyl-(1,3,4)oxadiazol-2-ylmethyl)-pyrrolidin-1-yl)-methanone) binding. Graphpad Prism calculates Ki value from IC50 and the pre-determined Kd values for [^3H]— (1-(5-(2-fluoro-phenyl)-2-methyl-thiazol-4-yl)-1-((S)-2-(5-phenyl-(1,3,4)oxadiazol-2-ylmethyl)-pyrrolidin-1-yl)-methanone) and [^3H]-EMPA. The Ki for each compound is then uploaded into 3DX. Each run comprises individual compounds in triplicate. The data in Table 1 and Table 2 represent averages from between 2-20 runs
Rat and Human Orexin 1 Receptor Radioligand Binding Studies
Human Embryonic Kidney 293 cells (HEK293) stably expressing rat orexin 1 receptor (Genebank accession number NM_001525) or Chinese ovary cells (CHO) stably expressing human orexin 1 receptor (Genebank accession number […]) were grown to confluency in DMEM (Hyclone, cat # SH30022), 10% FBS, 1× Pen/Strep, 1× sodium pyruvate, 10 mM HEPES, 600 μg/mL G418 and DMEM/F12 (Gibco, Cat #11039), 10% FBS, 1× Pen/Strep, 600 μg/mL G418 media, respectively on 150 cm^2 tissue culture plates, washed with 5 mM EDTA in PBS (HyClone Dulbecco's Phosphate Buffered Saline 1× with Calcium and Magnesium, Cat # SH30264.01, hereafter referred to simply as PBS) and scraped into 50 ml tubes. After centrifugation (2K×G, 5 min at 4° C.), the supernatant was aspirated and the pellets frozen and stored at −80° C. Cells were resuspended in PBS in the presence of 1 tablet of protease inhibitor cocktail (Roche, Cat. #11836145001) per 50 mL. […] Competition binding experiments in 96 well polypropylene plates were performed using [^3H]— (1-(5-(2-fluoro-phenyl)-2-methyl-thiazol-4-yl)-1-((S)-2-(5-phenyl-(1,3,4)oxadiazol-2-ylmethyl)-pyrrolidin-1-yl)-methanone) (Moraveck Corporation, specific activity=35.3 Ci/mmol), diluted to a 10 nM concentration in PBS (4 nM final). Compounds were solubilized in 100% DMSO (Acros Organics, Cat. #61042-1000) and tested over a range of 7 concentrations (from 0.1 nM to 10 μM). The final concentration of DMSO in the reactions is equal to or less than 0.1%. Total and nonspecific binding was determined in the absence and presence of 10 μM almorexant. The total volume of each reaction is 200 μL (20 μL of diluted compounds, 80 μL of [^3H]— (1-(5-(2-fluoro-phenyl)-2-methyl-thiazol-4-yl)-1-((S)-2-(5-phenyl-(1,3,4)oxadiazol-2-ylmethyl)-pyrrolidin-1-yl)-methanone) diluted in PBS and 100 μL of the cell suspension). Reactions were run for 60 min at room temperature and terminated by filtration through GF/C filter plates (PerkinElmer, Cat. #6005174) presoaked in 0.3% polyethylenimine using the cell harvester (PerkinElmer Filtermate). The plates were washed 3 times by aspirating 30 ml PBS through the plates. Plates were dried in 55° C. oven for 60 min, scintillation fluid was added, and the radioactivity was counted on a Topcount (Packard). […]

Sequence of human orexin 2 receptor (O43614 whole entry): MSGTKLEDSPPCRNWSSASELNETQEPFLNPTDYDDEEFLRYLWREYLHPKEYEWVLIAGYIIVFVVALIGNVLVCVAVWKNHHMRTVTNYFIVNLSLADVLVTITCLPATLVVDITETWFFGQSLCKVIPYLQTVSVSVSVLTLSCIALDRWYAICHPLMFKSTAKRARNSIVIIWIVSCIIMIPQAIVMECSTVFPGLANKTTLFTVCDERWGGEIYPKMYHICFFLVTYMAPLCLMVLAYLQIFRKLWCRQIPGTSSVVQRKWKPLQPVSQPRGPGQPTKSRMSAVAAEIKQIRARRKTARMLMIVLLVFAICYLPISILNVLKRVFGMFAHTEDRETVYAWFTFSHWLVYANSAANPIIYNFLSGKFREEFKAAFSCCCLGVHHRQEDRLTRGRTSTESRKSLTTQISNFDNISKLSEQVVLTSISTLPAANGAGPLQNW
Sequence of human orexin 1 receptor (O43613 whole entry): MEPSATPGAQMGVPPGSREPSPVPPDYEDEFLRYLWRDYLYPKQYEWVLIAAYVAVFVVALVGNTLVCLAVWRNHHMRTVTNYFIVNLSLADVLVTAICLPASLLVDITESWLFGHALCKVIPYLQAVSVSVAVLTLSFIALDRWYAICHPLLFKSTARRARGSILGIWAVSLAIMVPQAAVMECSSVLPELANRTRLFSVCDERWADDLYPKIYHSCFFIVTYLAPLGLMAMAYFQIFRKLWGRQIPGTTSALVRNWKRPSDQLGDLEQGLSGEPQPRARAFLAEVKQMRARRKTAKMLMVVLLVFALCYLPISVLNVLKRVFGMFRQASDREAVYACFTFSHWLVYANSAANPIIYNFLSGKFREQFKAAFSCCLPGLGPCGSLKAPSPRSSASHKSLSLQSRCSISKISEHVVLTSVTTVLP

Row | SMILES | Ki [1] | Ki [2] | Ki [3]
1 | O=C(c1ccccc1-c1ncccn1)N1[C@H](CF)[C@@H]2CC[C@H]1[C@H](Oc1ccc(C(F)(F)F)cn1)C2 [Example 75, ((1S,3S,4R,6R)-3-(fluoromethyl)-6-((5-(trifluoromethyl)pyridin-2-yl)oxy)-2-azabicyclo[2.2.2]octan-2-yl)(2-(pyrimidin-2-yl)phenyl)methanone] | > 10000 nM | 92 nM | 66 nM
2 | Cc1ccc(C(=O)N2[C@H](C)[C@H]3C[C@@H](Oc4ccc(Cl)cn4)[C@@H]2C3)c(-n2nccn2)n1 [Example 193, [(1R,2R,4S,5R)-5-[(5-chloro-2-pyridyl)oxy]-2-methyl-3-azabicyclo[2.2.1]heptan-3-yl]-[6-methyl-2-(triazol-2-yl)-3-pyridyl]methanone] | 4700 nM | 8 nM | 8 nM
3 | Cc1cnc(-n2nccn2)c(C(=O)N2[C@H](C)[C@H]3C[C@@H](Oc4cnc(C(F)(F)F)cn4)[C@@H]2C3)c1 (relative stereo) [Example 50, (5-methyl-2-(2H-1,2,3-triazol-2-yl)pyridin-3-yl)((1S*,3R*,4R*,6R*)-3-methyl-6-((5-(trifluoromethyl)pyrazin-2-yl)oxy)-2-azabicyclo[2.2.1]heptan-2-yl)methanone] | > 10000 nM | 23 nM | 30 nM
4 | C[C@@H]1[C@@H]2CC[C@@H]([C@@H](Oc3ccc(C(F)(F)F)cn3)C2)N1C(=O)c1cccc(F)c1-c1ncccn1 [Example 162, (3-fluoro-2-pyrimidin-2-yl-phenyl)-[(1R,2R,4S,5S)-2-methyl-5-[[5-(trifluoromethyl)-2-pyridyl]oxy]-3-azabicyclo[2.2.2]octan-3-yl]methanone] | > 10000 nM | 236 nM | 106 nM
5 | Cc1cnc(C(=O)N2C(C)C3CC(Nc4ccc(C(F)(F)F)cn4)C2C3)c(-c2ncccn2)c1 (racemic) [Example 59, (R/S)-(5-methyl-3-(pyrimidin-2-yl)pyridin-2-yl)(3-methyl-6-((5-(trifluoromethyl)pyridin-2-yl)amino)-2-azabicyclo[2.2.1]heptan-2-yl)methanone] | 4100 nM | 20 nM | 53 nM
6 | Cc1ccc(-n2nccn2)c(C(=O)N2C(C)C3CC(Oc4cnc(C(F)(F)F)cn4)C2C3)n1 (racemic) [Example 42, (R/S)-(6-methyl-3-(2H-1,2,3-triazol-2-yl)pyridin-2-yl)(3-methyl-6-((5-(trifluoromethyl)pyrazin-2-yl)oxy)-2-azabicyclo[2.2.1]heptan-2-yl)methanone] | > 10000 nM | 55 nM | 45 nM
7 | C[C@@H]1[C@H]2C[C@@H](Oc3cnc(C(F)(F)F)cn3)[C@H](C2)N1C(=O)c1cccc(F)c1-n1nccn1 (relative stereo) [Example 52, (3-fluoro-2-(2H-1,2,3-triazol-2-yl)phenyl)((1S*,3R*,4R*,6R*)-3-methyl-6-((5-(trifluoromethyl)pyrazin-2-yl)oxy)-2-azabicyclo[2.2.1]heptan-2-yl)methanone] | 2550 nM | 18 nM | 14 nM
8 | O=C(c1c(F)cccc1-c1ncco1)N1C(CF)C2CC(Oc3ccc(C(F)(F)F)cn3)C1C2 (racemic) [Example 71] | 1500 nM | 32 nM | 29 nM
9 | Cc1ccc(-n2nccn2)c(C(=O)N2[C@H](CO)[C@@H]3CC[C@H]2[C@H](Oc2ccc(C(F)(F)F)cn2)C3)n1 [Example 176, [(1R,2S,4S,5R)-2-(hydroxymethyl)-5-[[5-(trifluoromethyl)-2-pyridyl]oxy]-3-azabicyclo[2.2.2]octan-3-yl]-[6-methyl-3-(triazol-2-yl)-2-pyridyl]methanone] | 8100 nM | 33 nM | 35 nM

The next compounds have a lower Ki [1] than those just listed; values first:

Row | Ki [1] | Ki [2] | Ki [3] | SMILES
10 | 1100 nM | 11 nM | 16 nM | CC1C2CC(Oc3ccc(C(F)(F)F)cn3)C(C2)N1C(=O)c1cccc(F)c1-c1ncccn1 (single isomer, unassigned) [Example 8, (R/S)-(3-fluoro-2-(pyrimidin-2-yl)phenyl)(3-methyl-6-((5-(trifluoromethyl)pyridin-2-yl)oxy)-2-azabicyclo[2.2.1]heptan-2-yl)methanone]
11 | 1100 nM | 6 nM | 10 nM | Cc1ccc(-n2nccn2)c(C(=O)N2[C@H](C)[C@@H]3CC[C@H]2[C@H](Oc2ccc(C(F)(F)F)cn2)C3)n1 [Example 156, [6-methyl-3-(triazol-2-yl)-2-pyridyl]-[(1R,2R,4S,5R)-2-methyl-5-[[5-(trifluoromethyl)-2-pyridyl]oxy]-3-azabicyclo[2.2.2]octan-3-yl]methanone]
12 | 360 nM | 5 nM | 4 nM | C[C@@H]1[C@H]2C[C@@H](Nc3ccc(C(F)(F)F)cn3)[C@H](C2)N1C(=O)c1ncccc1-c1ncccn1 (relative stereo) [Example 62, ((1S*,3R*,4S*,6R*)-3-methyl-6-((5-(trifluoromethyl)pyridin-2-yl)amino)-2-azabicyclo[2.2.1]heptan-2-yl)(3-(pyrimidin-2-yl)pyridin-2-yl)methanone]
13 | 349 nM | 16 nM | 19 nM | Cc1ccc(-c2ncccn2)c(C(=O)N2[C@H](C)[C@H]3C[C@@H](Nc4ccc(C(F)(F)F)cn4)[C@@H]2C3)n1 [Example 60, (6-methyl-3-(pyrimidin-2-yl)pyridin-2-yl)((1S,3R,4S,6R)-3-methyl-6-((5-(trifluoromethyl)pyridin-2-yl)amino)-2-azabicyclo[2.2.1]heptan-2-yl)methanone]
14 | 236 nM | 11 nM | 14 nM | Cc1ccc(-n2nccn2)c(C(=O)N2C(C)C3CC(Nc4ccc(C(F)(F)F)cn4)C2C3)n1 (racemic) [Example 58, (R/S)-(6-methyl-3-(2H-1,2,3-triazol-2-yl)pyridin-2-yl)(3-methyl-6-((5-(trifluoromethyl)pyridin-2-yl)amino)-2-azabicyclo[2.2.1]heptan-2-yl)methanone]
15 | 109 nM | 41 nM | 42 nM | Cc1ccc(-n2nccn2)c(C(=O)N2[C@H](C)[C@H]3C[C@@H](Oc4cnc5cc(F)c(F)cc5n4)[C@@H]2C3)n1 (relative stereo) [Example 189, ((1S*,3R*,4R*,6R*)-6-((6,7-difluoroquinoxalin-2-yl)oxy)-3-methyl-2-azabicyclo[2.2.1]heptan-2-yl)(6-methyl-3-(2H-1,2,3-triazol-2-yl)pyridin-2-yl)methanone]
